The values below come from ChEMBL document CHEMBL4422618, “Translational impact of novel widely pharmacological characterized mofezolac-derived COX-1 inhibitors combined with bortezomib on human multiple myeloma cell lines viability” (Eur J Med Chem, 2019).

Series [1] concerns NCI-H929. Description: Induction of apoptosis in human NCI-H929 cells assessed as early apoptotic cells at 42 nM after 48 hrs in presence of bortezomib by Annexin-V/propidium iodide staining based flow cytometric method (reference value: 17.1%). Format: functional. On the technique in general: In flow cytometry, cells or beads pass a laser one at a time.
The target of series [2] is T1, Prostaglandin G/H synthase 1 (Ovis aries, UniProt P05979).
T1 sequence (P05979 whole entry): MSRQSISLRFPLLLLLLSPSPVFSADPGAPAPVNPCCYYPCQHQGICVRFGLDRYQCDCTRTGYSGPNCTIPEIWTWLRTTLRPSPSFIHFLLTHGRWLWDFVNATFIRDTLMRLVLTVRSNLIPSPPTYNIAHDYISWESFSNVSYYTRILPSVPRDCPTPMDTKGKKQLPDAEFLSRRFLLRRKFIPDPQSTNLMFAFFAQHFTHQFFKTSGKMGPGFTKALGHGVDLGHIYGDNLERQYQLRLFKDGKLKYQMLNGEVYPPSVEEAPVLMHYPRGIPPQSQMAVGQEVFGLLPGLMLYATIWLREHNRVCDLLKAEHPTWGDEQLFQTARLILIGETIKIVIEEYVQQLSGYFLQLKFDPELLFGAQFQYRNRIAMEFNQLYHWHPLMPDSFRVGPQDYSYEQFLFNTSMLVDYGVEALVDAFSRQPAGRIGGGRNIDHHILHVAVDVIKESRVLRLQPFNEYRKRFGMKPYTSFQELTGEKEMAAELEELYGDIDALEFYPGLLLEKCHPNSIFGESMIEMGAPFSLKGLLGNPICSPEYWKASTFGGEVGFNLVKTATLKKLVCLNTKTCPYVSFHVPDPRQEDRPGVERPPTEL
Briefly: Inhibition of ovine COX1 using arachidonic acid as substrate by colorimetric assay.

The nature of series [3]: Genotoxicity in Escherichia coli PQ37 at 500 uM after overnight incubation by SOS chromotest. Format: toxicity.
The test system of series [4] is Platelet. Briefly: Antiplatelet activity in human platelet rich plasma assessed as inhibition of arachidonic acid-induced platelet aggregation preincubated for 2 mins followed by arachidonic acid addition by turbidimetric method. The format is functional, cell-based.
Series [5] has as its system RPMI-8226. Briefly: Potentiation of bortezomib-induced cytotoxicity against human RPMI8226 cells assessed as reduction in cell viability at 42 nM after 48 hrs in presence of bortezomib by CCK8 assay. The format is functional.
The subject of series [6] is NCI-H929. Description: Induction of apoptosis in human NCI-H929 cells assessed as late apoptotic cells at 42 nM after 48 hrs in presence of bortezomib by Annexin-V/propidium iodide staining based flow cytometric method (reference value: 0.23%). Format: functional.
Series [7] concerns NCI-H929. Briefly: Potentiation of bortezomib-induced cytotoxicity against human NCI-H929 cells assessed as reduction in cell viability at 42 nM after 48 hrs in presence of bortezomib by CCK8 assay. The format is functional, cell-based.
The subject of series [8] is RPMI-8226. Description: Induction of apoptosis in human RPMI8226 cells assessed as necrotic cells at 42 nM after 48 hrs in presence of bortezomib by Annexin-V/propidium iodide staining based flow cytometric method (reference value: 0.090%). The format is functional.
In series [9] the test system is RPMI-8226. Description: Cell cycle arrest in human RPMI8226 cells assessed as accumulation at S phase at 42 nM in presence of bortezomib after 48 hrs by propidium iodide/RNase staining based flow cytometric method relative to bortezomib. The format is functional.
Series [10] concerns RPMI-8226. Description: Induction of apoptosis in human RPMI8226 cells assessed as early apoptotic cells at 42 nM after 48 hrs in presence of bortezomib by Annexin-V/propidium iodide staining based flow cytometric method (reference value: 1.05%). Format: functional.
In series [11] the test system is RPMI-8226. Briefly: Cell cycle arrest in human RPMI8226 cells assessed as accumulation at G0/G1 phase at 42 nM in presence of bortezomib after 48 hrs by propidium iodide/RNase staining based flow cytometric method relative to bortezomib. The format is functional.
For series [12], the system named is NCI-H929. Description: Cytotoxicity against human NCI-H929 cells assessed as reduction in cell viability at 42 nM after 48 hrs by CCK8 assay. The format is functional, cell-based. (Tetrazolium assays rely on reduction of a dye to a coloured formazan, in cell work by metabolically active cells.)
Series [13] has as its system RPMI-8226. Description: Cell cycle arrest in human RPMI8226 cells assessed as accumulation at S phase at 42 nM after 48 hrs by propidium iodide/RNase staining based flow cytometric method. Format: functional.
Series [14] is described as follows: Genotoxicity in Escherichia coli PQ35 at 500 uM after overnight incubation by SOS chromotest. Format: toxicity.
The subject of series [15] is NCI-H929. Description: Cell cycle arrest in human NCI-H929 cells assessed as accumulation at G0/G1 phase at 42 nM in presence of bortezomib after 48 hrs by propidium iodide/RNase staining based flow cytometric method relative to bortezomib alone. Format: functional.
In series [16] the test system is NCI-H929. Briefly: Induction of apoptosis in human NCI-H929 cells assessed as viable cells at 42 nM after 48 hrs by Annexin-V/propidium iodide staining based flow cytometric method (reference value: 82.6%). The format is functional. The following applies: NCI-H929, 48 h, read-out: Activity.
In series [17] the test system is NCI-H929. Briefly: Induction of apoptosis in human NCI-H929 cells assessed as late apoptotic cells at 42 nM after 48 hrs by Annexin-V/propidium iodide staining based flow cytometric method (reference value: 0.23%). The format is functional.
Series [18] concerns RPMI-8226. Description: Cell cycle arrest in human RPMI8226 cells assessed as reduction in accumulation at G2/M phase at 42 nM in presence of bortezomib after 48 hrs by propidium iodide/RNase staining based flow cytometric method relative to bortezomib. Format: functional.
The subject of series [19] is RPMI-8226. Briefly: Cytotoxicity against human RPMI8226 cells assessed as reduction in cell viability at 1.7 uM after 48 hrs by CCK8 assay relative to control. The format is functional.
The subject of series [20] is Plasma. Briefly: Anticoagulant activity in human platelet poor plasma assessed as prothrombin time at 100 uM incubated for 15 mins at room temperature and subsequent incubation for 2 mins at 37 degreeC followed by PBS addition and measured after 3 mins for every secs in presence of calcium thromboplastin. Format: functional.
In series [21] the target is T2, Prostaglandin G/H synthase 1 (Ovis aries) (UniProt P05979).
T2 sequence (whole entry): T1 sequence (P05979 whole entry)
Briefly: Inhibition of ovine COX1 at 50 uM using arachidonic acid as substrate by colorimetric assay relative to control.

The test system of series [22] is NCI-H929. Description: Cell cycle arrest in human NCI-H929 cells assessed as accumulation at S phase at 42 nM in presence of bortezomib after 48 hrs by propidium iodide/RNase staining based flow cytometric method relative to bortezomib alone. Format: functional.

Activity calls are given as the source filed them. The calls are words filed in the database; no cut-off is given here.

Take `C=Cc1onc(-c2ccc(OC)cc2)c1-c1ccc(OC)cc1`: the Activity in series [1] was 60.6%; in [3], “Non-Toxic”; in [5] it was 66%; in series [6], 0.22%; in series [8], 0.01%; in series [10], 9.68%. For the same molecule, the Activity result is given as “Non-Toxic” in [14]; 15% in [15]; 0.11% in series [17]; 4% in series [19]; 15% in [22]. Further, the IC50 in [2] stood at 42 nM; in series [4], 630 nM. Moreover, the outcome in [7], in series [12] and in series [13] was inactive. Besides, the outcome in [9], in series [11] and in [18] was Active. The viability at 0.042 µM in series [16] stood at 83%. In addition, in series [20], the PT worked out at 13.7 s. The same molecule gave an inhibition in series [21] of 100%.

Broadly, the IC50 is the concentration that gives 50% inhibition. What is called inhibition is the change of the read-out against control, counted positive when it falls. A higher inhibition goes with strong suppression.
